System: human liver cancer-derived cell line Hep3B
Assay: in vitro erythropoietin (EPO) induction activity in Hep3B cells, EPO ELISA of culture supernatant
Format: cell-based
Conditions: test compound 12.5 μM, 24 hours at 37° C., multiple against EPO concentration in control (0.5% DMSO)
Experimental: The in vitro erythropoietin (EPO) induction activity of test compounds was evaluated using human liver cancer-derived cell line Hep3B (ATCC, Manassas, Va.). Hep3B cells were cultured overnight at 37° C. in Dulbecco's Modified Eagle's Medium (DMEM) in the presence of 10% fetal bovine serum (FBS) (24-well plate, 1.0×10^5 cells/well). After replacing with fresh DMEM (+10% FBS) containing a test compound dissolved in 0.5% dimethyl sulfoxide (DMSO) (prepared to a concentration of 12.5 μM) or a solvent control (0.5% DMSO), the cells were cultured for 24 hours at 37° C. After recovering the culture supernatant, EPO concentration in the culture supernatant was quantified using a human EPO ELISA kit (StemCell Technologies). The compounds of Examples 1, 2, 5, 20, 43, 56, 100, 103, 109, 167, 173, 181, 193 and 198 were used for the test compounds. The EPO concentration of each Example was expressed as a multiple against the EPO concentration in the control.

| SMILES | fold induction at 12.5 µM |
| --- | --- |
| Cc1nc(CC2CCN(c3ccc(C(C)(C)C)cc3)CC2)nc(C(=O)NCC(=O)O)c1O [Example 1] | 98 |
| Cc1nc(CC2CCN(c3ccc(-c4nccs4)cc3)CC2)nc(C(=O)NCC(=O)O)c1O [Example 109, ({[5-Hydroxy-6-methyl-2-({1-[4-(1,3-thiazol-2-yl)phenyl]piperidin-4-yl}methyl)pyrimidin-4-yl]carbonyl}amino)acetic acid] | 142 |
| Cc1nc(CC2CCN(c3ccc(Cc4ccccc4)cc3)CC2)nc(C(=O)NCC(=O)O)c1O [Example 56, {[(2-{[1-(4-Benzylphenyl)piperidin-4-yl]methyl}-5-hydroxy-6-methylpyrimidin-4-yl)carbonyl]amino}acetic acid] | 158 |
| Cc1nc(CC2CCN(c3ccc(-c4ccccn4)cc3)CC2)nc(C(=O)NCC(=O)O)c1O [Example 100, ({[5-Hydroxy-6-methyl-2-({1-[4-(pyridin-2-yl)phenyl]piperidin-4-yl}methyl)pyrimidin-4-yl]carbonyl}amino)acetic acid] | 104 |
| Cc1nc(CC2CCN(c3ccc(C(F)(F)F)cc3)CC2)nc(C(=O)NCC(=O)O)c1O [Example 20, ({[5-Hydroxy-6-methyl-2-({1-[4-(trifluoromethyl)phenyl]piperidin-4-yl}methyl)pyrimidin-4-yl]carbonyl}amino)acetic acid] | 127 |
| Cc1nc(CC2CCN(c3ccc(-c4cccnc4)cc3)CC2)nc(C(=O)NCC(=O)O)c1O [Example 103, ({[5-Hydroxy-6-methyl-2-({1-[4-(pyridin-3-yl)phenyl]piperidin-4-yl}methyl)pyrimidin-4-yl]carbonyl}amino)acetic acid] | 100 |
| CSc1nc(CC2CCN(c3ccc(C(C)(C)C)cc3)CC2)nc(C(=O)NCC(=O)O)c1O [Example 193, ({[2-{[1-(4-tert-Butylphenyl)piperidin-4-yl]methyl}-5-hydroxy-6-(methylsulfanyl)pyrimidin-4-yl]carbonyl}amino)acetic acid] | 147 |
| Cc1nc(C[C@H]2OC[C@H](c3ccc(-c4ccccc4)cc3)CO2)nc(C(=O)NCC(=O)O)c1O [Example 198, {[(2-{[trans-5-(Biphenyl-4-yl)-1,3-dioxan-2-yl]methyl}-5-hydroxy-6-methylpyrimidin-4-yl)-carbonyl]amino}acetic acid] | 108 |
| Cc1nc(CC2=CCN(c3ccc(C(C)(C)C)cc3)CC2)nc(C(=O)NCC(=O)O)c1O [Example 167, {[(2-{[1-(4-tert-Butylphenyl)-1,2,3,6-tetrahydropyridin-4-yl]methyl}-5-hydroxy-6-methylpyrimidin-4-yl)carbonyl]amino}acetic acid] | 225 |
| Cc1nc(Cc2cnc(-c3ccc(C(C)(C)C)cc3)nc2)nc(C(=O)NCC(=O)O)c1O [Example 181, {[(2-{[2-(4-tert-Butylphenyl)pyrimidin-5-yl]methyl}-5-hydroxy-6-methylpyrimidin-4-yl)-carbonyl]amino}acetic acid] | 155 |
| Cc1nc(Cc2ccc(-c3ccc(C(C)(C)C)cc3)nc2)nc(C(=O)NCC(=O)O)c1O [Example 173, {[(2-{[6-(4-tert-Butylphenyl)pyridin-3-yl]methyl}-5-hydroxy-6-methylpyrimidin-4-yl)-carbonyl]amino}acetic acid] | 184 |
| Cc1nc(CC2CCN(c3ccc(F)cc3)CC2)nc(C(=O)NCC(=O)O)c1O [Example 5, {[(2-{[1-(4-Fluorophenyl)piperidin-4-yl]methyl}-5-hydroxy-6-methylpyrimidin-4-yl)carbonyl]amino}acetic acid] | 29 |
| Cc1nc(CC2CCN(c3ccc(-c4ccccc4)cc3)CC2)nc(C(=O)NCC(=O)O)c1O [Example 43, {[(2-{[1-(Biphenyl-4-yl)piperidin-4-yl]methyl}-5-hydroxy-6-methylpyrimidin-4-yl)carbonyl]amino}acetic acid] | 262 |
| Cc1nc(CC2CCN(c3ccccc3)CC2)nc(C(=O)NCC(=O)O)c1O [Example 2, [({5-Hydroxy-6-methyl-2-[(1-phenylpiperidin-4-yl)methyl]pyrimidin-4-yl}carbonyl)amino]acetic acid] | 37 |

System: not given
Assay: not given
Conditions: not given

| SMILES | melting point |
| --- | --- |
| Cc1nc(C[C@H]2OC[C@H](c3ccc(F)cc3)CO2)nc(C(=O)NCC(=O)O)c1O [Example 196, {[(2-{[trans-5-(4-Fluorophenyl)-1,3-dioxan-2-yl]methyl}-5-hydroxy-6-methylpyrimidin-4-yl)carbonyl]amino}acetic acid] | 209 °C |
| Cc1nc(CC2(C)CCN(c3ccc(F)cc3)CC2)nc(C(=O)NCC(=O)O)c1O [Example 186, {[(2-{[1-(4-Fluorophenyl)-4-methylpiperidin-4-yl]methyl}-5-hydroxy-6-methylpyrimidin-4-yl)carbonyl]amino}acetic acid] | 140 to 141 °C |

From patent publication US20110112103A1, “5-HYDROXYPYRIMIDINE-4-CARBOXAMIDE COMPOUND” (DAIICHI SANKYO COMPANY, LIMITED, priority 2008, published 2011)
